Test results from patent publication US9504675B2, “Alpha-ketoheterocycles and methods of making and using” (The Scripps Research Institute, priority 2011, dated 2016).
Like-named read-outs stand apart in the source and are kept apart here.

Biological target: T1, recombinant rat FAAH (rFAAH) (Rattus norvegicus, UniProt P97612)
T1 construct: The truncated rat FAAH (rFAAH) was expressed in E. coli and purified; made in house; host or cells: Escherichia coli
T1 sequence (P97612 30-579 limits assumed): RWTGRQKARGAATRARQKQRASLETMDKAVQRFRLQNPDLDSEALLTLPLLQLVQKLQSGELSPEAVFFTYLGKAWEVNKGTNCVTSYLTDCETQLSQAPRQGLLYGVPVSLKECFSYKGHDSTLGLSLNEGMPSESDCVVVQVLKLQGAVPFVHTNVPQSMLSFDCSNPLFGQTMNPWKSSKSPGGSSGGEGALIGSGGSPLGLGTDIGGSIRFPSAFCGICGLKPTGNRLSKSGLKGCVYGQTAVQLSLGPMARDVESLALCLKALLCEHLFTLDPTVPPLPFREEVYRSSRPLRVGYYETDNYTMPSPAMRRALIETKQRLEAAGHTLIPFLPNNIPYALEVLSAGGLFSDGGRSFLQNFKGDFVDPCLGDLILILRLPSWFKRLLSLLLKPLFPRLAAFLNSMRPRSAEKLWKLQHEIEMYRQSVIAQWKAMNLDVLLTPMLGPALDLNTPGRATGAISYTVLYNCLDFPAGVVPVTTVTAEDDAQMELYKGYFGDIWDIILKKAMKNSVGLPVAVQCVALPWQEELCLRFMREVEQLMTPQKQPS
Assay: Enzyme assay: inhibition of purified recombinant rat FAAH, 14C-oleamide hydrolysis, Ki by Dixon plot
Assay type: biochemical
Experimental: Enzyme assays were performed at 20-23° C. with purified recombinant rat FAAH expressed in Escherichia coli or with solubilized COS-7 membrane extracts from cells transiently transfected with human FAAH cDNA (where specifically indicated) in a buffer of 125 mM Tris/1 mM EDTA/0.2% glycerol/0.02% Triton X-100/0.4 mM Hepes, pH 9.0.
^14C-labeled oleamide was prepared from ^14C-labeled oleic acid. The truncated rat FAAH (rFAAH) was expressed in E. coli and purified. The purified recombinant rFAAH was used in the inhibition assays unless otherwise indicated. The full-length human FAAH (hFAAH) was expressed in COS-7 cells as described, and the lysate of hFAAH-transfected COS-7 cells was used in the inhibition assays where explicitly indicated.
The inhibition assays were performed as follows. […] The enzyme reaction was terminated by transferring 20 μL of the reaction mixture to 500 μL of 0.1 N HCl at three different time points. The ^14C-labeled oleamide (substrate) and oleic acid (product) were extracted with EtOAc and analyzed by TLC as detailed. The Ki of the inhibitor was calculated using a Dixon plot as described (standard deviations are provided in the Supporting Information tables).

[1] = Ki, Table 3, racemate (enantiomers not separable), indane C2 acyl side chain
[2] = Ki, Table 2, (R)-enantiomer, 1,2,3,4-tetrahydronaphthalene C2 acyl side chain
[3] = Ki, Table 3, (R)-enantiomer, indane C2 acyl side chain

Compound | Ki [2] | also measured
COC(=O)c1cccc(-c2cnc(C(=O)C3Cc4ccc(-c5ccccc5)cc4C3)o2)n1 (racemic) [Compound 24, Methyl 6-[2-(5-Phenylindane-2-carbonyl)oxazol-5-yl]pyridine-2-carboxylate] | – | Ki [1]: 6.2 nM
O=C(O)c1cccc(-c2cnc(C(=O)C3Cc4ccc(-c5ccccc5)cc4C3)o2)n1 (racemic) [Compound 25, 6-[2-(5-Phenylindane-2-carbonyl)oxazol-5-yl]pyridine-2-carboxylic Acid] | – | Ki [1]: 57 nM
O=C(c1ncco1)C1Cc2ccc(OCc3ccccc3)cc2C1 (racemic) [Compound 30, (5-(Benzyloxy)indan-2-yl)(oxazol-2-yl)methanone] | – | Ki (Table 3, racemate (enantiomers not separable), indane C2 acyl side chain, read-out: Ki): 24 nM
O=C(c1ncco1)C1CCc2cc(-c3ccccc3)ccc2C1 (single isomer, unassigned) [(R)-3, Oxazol-2-yl(6-phenyl-1,2,3,4-tetrahydronaphthalen-2-yl)methanone] | 460 nM | –
COC(=O)c1cnc(C(=O)C2CCc3cc(-c4ccccc4)ccc3C2)o1 (single isomer, unassigned) [(R)-4, Methyl 2-(6-Phenyl-1,2,3,4-tetrahydronaphthalene-2-carbonyl)oxazole-5-carboxylate] | 1400 nM | –
N#Cc1cnc(C(=O)C2CCc3cc(-c4ccccc4)ccc3C2)o1 (single isomer, unassigned) [(R)-5, 2-(6-Phenyl-1,2,3,4-tetrahydronaphthalene-2-carbonyl)oxazole-5-carbonitrile] | 62 nM | –
O=C(c1ncc(-c2ccccn2)o1)C1CCc2cc(-c3ccccc3)ccc2C1 (single isomer, unassigned) [(R)-6, (6-Phenyl-1,2,4-tetrahydronaphthalen-2-yl)(5-(pyridin-2-yl)oxazol-2-yl)methanone] | 240 nM | –
COC(=O)c1cccc(-c2cnc(C(=O)C3CCc4cc(-c5ccccc5)ccc4C3)o2)n1 (single isomer, unassigned) [(R)-7, Methyl 6-(2-(6-Phenyl-1,2,3,4-tetrahydronaphthalene-2-carbonyl)oxazol-5-yl)picolinate] | 700 nM | –
O=C(O)c1cccc(-c2cnc(C(=O)C3CCc4cc(-c5ccccc5)ccc4C3)o2)n1 (single isomer, unassigned) [(R)-8, 6-(2-(6-Phenyl-1,2,3,4-tetrahydronaphthalene-2-carbonyl)oxazol-5-yl)picolinic acid] | 500 nM | –
O=C(c1ncco1)C1CCc2cc(Oc3ccccc3)ccc2C1 (single isomer, unassigned) [(R)-9, Oxazol-2-yl(6-phenoxy-1,2,3,4-tetrahydronaphthalen-2-yl)methanone] | 410 nM | –
COC(=O)c1cnc(C(=O)C2CCc3cc(Oc4ccccc4)ccc3C2)o1 (single isomer, unassigned) [(R)-10, Methyl 2-(6-Phenoxy-1,2,3,4-tetrahydronaphthalene-2-carbonyl)oxazole-5-carboxylate] | 59 nM | –
N#Cc1cnc(C(=O)C2CCc3cc(Oc4ccccc4)ccc3C2)o1 (single isomer, unassigned) [(R)-11, 2-(6-Phenoxy-1,2,3,4-tetrahydronaphthalene-2-carbonyl)oxazole-5-carbonitrile] | 54 nM | –
O=C(c1ncc(-c2ccccn2)o1)C1CCc2cc(Oc3ccccc3)ccc2C1 (single isomer, unassigned) [(R)-12, (6-Phenoxy-1,2,3,4-tetrahydronaphthalen-2-yl)(5-(pyridin-2-yl)oxazol-2-yl)methanone] | 290 nM | –
COC(=O)c1cccc(-c2cnc(C(=O)C3CCc4cc(Oc5ccccc5)ccc4C3)o2)n1 (single isomer, unassigned) [(R)-13, Methyl 6-(2-(6-Phenoxy-1,2,3,4-tetrahydronaphthalene-2-carbonyl)oxazol-5-yl)picolinate] | 870 nM | –
O=C(O)c1cccc(-c2cnc(C(=O)C3CCc4cc(Oc5ccccc5)ccc4C3)o2)n1 (single isomer, unassigned) [(R)-14, 6-(2-(6-Phenoxy-1,2,3,4-tetrahydronaphthalene-2-carbonyl)oxazol-5-yl)picolinic acid] | 220 nM | –
O=C(c1ncco1)C1CCc2cc(OCc3ccccc3)ccc2C1 (single isomer, unassigned) [(R)-15, (6-(Benzyloxy)-1,2,3,4-tetrahydronaphthalen-2-yl)(oxazol-2-yl)methanone] | 87 nM | –
COC(=O)c1cnc(C(=O)C2CCc3cc(OCc4ccccc4)ccc3C2)o1 (single isomer, unassigned) [(R)-16, Methyl 2-(6-(Benzyloxy)-1,2,3,4-tetrahydronaphthalene-2-carbonyl)oxazole-5-carboxylate] | 53 nM | –
N#Cc1cnc(C(=O)C2CCc3cc(OCc4ccccc4)ccc3C2)o1 (single isomer, unassigned) [(R)-17, 2-(6-(Benzyloxy)-1,2,3,4-tetrahydronaphthalene-2-carbonyl)oxazole-5-carbonitrile] | 120 nM | –
O=C(c1ncc(-c2ccccn2)o1)C1CCc2cc(OCc3ccccc3)ccc2C1 (single isomer, unassigned) [(R)-18, (6-(Benzyloxy)-1,2,3,4-tetrahydronaphthalen-2-yl)(5-(pyridin-2-yl)oxazol-2-yl)methanone] | 300 nM | –
COC(=O)c1cccc(-c2cnc(C(=O)C3CCc4cc(OCc5ccccc5)ccc4C3)o2)n1 (single isomer, unassigned) [(R)-19, Methyl 6-(2-(6-(Benzyloxy)-1,2,3,4-tetrahydronaphthalene-2-carbonyl)oxazol-5-yl)picolinate] | 4500 nM | –
O=C(O)c1cccc(-c2cnc(C(=O)C3CCc4cc(OCc5ccccc5)ccc4C3)o2)n1 (single isomer, unassigned) [(R)-20, 6-(2-(6-(Benzyloxy)-1,2,3,4-tetrahydronaphthalene-2-carbonyl)oxazol-5-yl)picolinic acid] | 740 nM | –
O=C(c1ncco1)C1Cc2ccc(-c3ccccc3)cc2C1 (single isomer, unassigned) [(R)-22, Oxazol-2-yl(5-phenylindan-2-yl)methanone] | – | Ki [3]: 140 nM
O=C(c1ncc(-c2ccccn2)o1)C1Cc2ccc(-c3ccccc3)cc2C1 (single isomer, unassigned) [(R)-23, (5-Phenylindan-2-yl)-(5-(pyridin-2-yl)oxazol-2-yl)methanone] | – | Ki [3]: 600 nM
O=C(c1ncco1)C1Cc2ccc(Oc3ccccc3)cc2C1 (single isomer, unassigned) [(R)-26, Oxazol-2-yl(5-phenoxyindan-2-yl)methanone] | – | Ki [3]: 200 nM
O=C(c1ncc(-c2ccccn2)o1)C1Cc2ccc(Oc3ccccc3)cc2C1 (single isomer, unassigned) [(R)-27, (5-Phenoxyindan-2-yl)(5-(pyridin-2-yl)oxazol-2-yl)methanone] | – | Ki [3]: 42 nM
COC(=O)c1cccc(-c2cnc(C(=O)C3Cc4ccc(Oc5ccccc5)cc4C3)o2)n1 (single isomer, unassigned) [(R)-28] | – | Ki [3]: 790 nM
O=C(O)c1cccc(-c2cnc(C(=O)C3Cc4ccc(Oc5ccccc5)cc4C3)o2)n1 (single isomer, unassigned) [(R)-29, 6-(2-(5-Phenoxyindane-2-carbonyl)oxazol-5-yl)picolinic acid] | – | Ki [3]: 550 nM
O=C(c1ncc(-c2ccccn2)o1)C1Cc2ccc(OCc3ccccc3)cc2C1 (single isomer, unassigned) [(R)-31, (5-(Benzyloxy)indan-2-yl)(5-(pyridin-2-yl)oxazol-2-yl)methanone] | – | Ki [3]: 110 nM
